Reference: PubChem BioAssay (NCI)
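Grown in 96-well plates, cells were treated for 48 hours with each compound at five concentrations. Insufficient inhibition: endpoint recorded as highest concentration tested. The concentration for 50% growth inhibition is given as GI50. TGI: total growth inhibition.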

Key:
Assay in all cases: DTP human tumour cell line panel, 48 h
CAKI-1 renal = system: CAKI-1 renal
CCRF-CEM leukemia = system: CCRF-CEM leukemia
HCT-116 colon = system: HCT-116 colon
HOP-62 NSCLC = system: HOP-62 NSCLC
NCI-H226 lung = system: NCI-H226 lung
NCI-H23 lung = system: NCI-H23 lung
NCI-H460 lung = system: NCI-H460 lung
SF-295 CNS = system: SF-295 CNS
SNB-75 CNS = system: SNB-75 CNS
TK-10 renal = system: TK-10 renal

Row | SMILES | GI50 (CAKI-1 renal) [µM] | TGI (CAKI-1 renal) [µM] | GI50 (CCRF-CEM leukemia) [µM] | TGI (CCRF-CEM leukemia) [µM] | GI50 (HCT-116 colon) [µM] | TGI (HCT-116 colon) [µM] | GI50 (HOP-62 NSCLC) [µM] | TGI (HOP-62 NSCLC) [µM] | GI50 (NCI-H226 lung) [µM] | TGI (NCI-H226 lung) [µM] | GI50 (NCI-H23 lung) [µM] | TGI (NCI-H23 lung) [µM] | GI50 (NCI-H460 lung) [µM] | TGI (NCI-H460 lung) [µM] | GI50 (SF-295 CNS) [µM] | TGI (SF-295 CNS) [µM] | GI50 (SNB-75 CNS) [µM] | TGI (SNB-75 CNS) [µM] | GI50 (TK-10 renal) [µM] | TGI (TK-10 renal) [µM]
1 | Cc1ccc(NC(C(=O)c2ccccc2)c2ccccc2)cc1 (stereo not drawn) | 10.6 | 39.7 | 3.98 | 51.1 | 2.04 | 12.4 | 9.75 | 39.1 | 18 | > 100 | 3.5 | > 100 | 2.8 | 11.8 | 2.38 | 8.71 | 3.58 | 20.3 |  | 
2 | Cc1ccc(-n2nnc3c(sc4ccccc43)c2=O)cc1 | 3.8 | > 100 |  |  | 3.1 | > 100 | 3.8 | 26.5 | 9.55 | > 100 | 42.8 | > 100 | 4.19 | > 100 | 3.03 | 14.5 | 3.08 | 16.3 | 7.47 | 50
3 | C=C(CS(=O)(=O)c1ccccc1)C(=O)OCC |  | 33.9 |  | 12.2 |  | 29.9 |  |  |  | 58.1 |  | 37.2 |  | 35.4 |  | 32 |  | 32 |  | 31.8
4 | COc1cc(C2CC(=O)c3c(C)nn(-c4nc5ccccc5[nH]4)c3C2)cc(OC)c1OC (stereo not drawn) | > 100 | > 100 | > 100 | > 100 | 7.39 | > 100 | 3.61 | > 100 |  |  | > 100 | > 100 |  |  |  |  | 1.72 | 3.46 |  | 
5 | NC(Cn1ccc(=O)c(O)c1)C(=O)O (stereo not drawn) |  | > 100 |  | > 100 |  | > 100 |  | > 100 |  | > 100 |  | > 100 |  | > 100 |  | > 100 |  |  |  | > 100
6 | COc1ccc2oc(-c3cc4cc(OC)ccc4o3)cc2c1 |  | > 100 |  | > 100 |  |  |  | > 100 |  |  |  | > 100 |  | > 100 |  | > 100 |  | > 100 |  | > 100
7 | Cc1cc(C(=O)N2CCN(C)CC2)c2c(=O)n(-c3ccccc3)c(=O)n(CC(O)CN3CCN(c4ncccn4)CC3)c2n1 (stereo not drawn) | > 100 | > 100 |  |  | > 100 | > 100 | > 100 | > 100 | > 100 | > 100 | > 100 | > 100 | > 100 | > 100 | > 100 | > 100 | > 100 | > 100 | > 100 | > 100
8 | CCOP(=O)(CCN1CCN(CCCCCOc2cc3c(cc2OC)C(=O)N2CCC[C@H]2C=N3)CC1)OCC | 5.84 | 97.9 |  |  | 7.66 | 80.8 | 23 | > 100 | 17.1 | 65.5 | 16.6 | 38.4 | 6.14 | 46.1 |  |  | 1.35 | 8.85 | 22.8 | > 100
